Results from US20170216295A1, “CCR9 ANTAGONIST COMPOUNDS” (Merck Sharp & Dohme Corp., priority 2014, published 2017).
Converted amounts (≈) assume the structure as drawn. Read-outs that look alike come from different tables or passages of the source.

Tests used:
CCR9 receptor = molecular target: T1, CCR9 receptor (Homo sapiens, UniProt P51686); test: Calcium mobilization (Ca FLIPR) assay, antagonist mode vs TECK; format: cell-based; settings: for LipE: LipE = pIC50-clogD; for IC50: cells expressing CCR9, TECK at EC80 0.01 uM, read-out: CCR9 Ca2+ IC50
T1 sequence (P51686 1-369): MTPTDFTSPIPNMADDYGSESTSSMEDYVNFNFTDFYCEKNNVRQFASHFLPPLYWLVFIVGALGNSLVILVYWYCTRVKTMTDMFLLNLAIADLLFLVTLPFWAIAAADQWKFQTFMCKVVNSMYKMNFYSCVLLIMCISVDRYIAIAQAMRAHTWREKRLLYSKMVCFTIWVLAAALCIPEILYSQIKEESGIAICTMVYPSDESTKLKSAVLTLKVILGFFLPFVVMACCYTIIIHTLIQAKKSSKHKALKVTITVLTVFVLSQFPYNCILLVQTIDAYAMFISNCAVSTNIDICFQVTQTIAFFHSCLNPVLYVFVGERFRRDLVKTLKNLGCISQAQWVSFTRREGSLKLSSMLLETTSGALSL
Method: Calcium Mobilization Assay:
Cells expressing CCR9 receptor (MultiSpan, Hayward, Calif.) were seeded in 384-well plates. Ca^2+ assays were conducted after overnight culture in the plates according to the manufacturer's protocol using Screen Quest™ Fluo-8 no wash kit (AAT Bioquest, Sunnyvale, Calif.). Dye loading buffer was added to the cells and incubated for 45 minutes at 37° C. followed by 15 minutes incubation at room temperature. Compounds in the presence of 0.1% DMSO were applied to the cells during calcium flux measurement. Calcium flux was monitored for 90 seconds with compound application after 10 seconds. For antagonist mode, cells were preincubated with the compound at room temperature for 10 minutes before the application of the control agonist TECK (Preprotech, Rocky Hill, N.J.) at EC80 concentration of 0.01 uM obtained from dose-response curves of control agonist.

[1] = Rat microsome protein binding (equilibrium dialysis); format: in vitro ADME; settings: rat liver microsomes, 1 mg/mL rat hepatic microsomes, read-out: Rat Microsomal Binding Fu
Method: (§1) Plasma and Microsome Protein Binding:
(§2) Protein binding was measured via high throughput equilibrium dialysis with the HTDialysis device fitted with a 12,000 to 14,000 Da molecular weight cutoff membrane. Rat plasma or 1 mg/mL rat hepatic microsomes spiked with test article were dialyzed vs. phosphate buffer for 6 hours. Aliquots were removed from both sides of the membrane and diluted with equal volumes of the opposite matrix. Following protein precipitation and centrifugation, the resultant matrix matched supernatants were analyzed by LC-MS to compare the plasma or microsome dialysate test article signal to the buffer signal. Test article stability was monitored during the course of the assay.

[2] = Rat liver microsome clearance; format: in vitro ADME; settings: for CLint scaled at 2 μM: rat liver microsomes, read-out: Rat Microsome In Vitro CLint; for CLint scaled at 2 μM / Rat Microsome In Vitro CLint: 1 mg/mL rat hepatic microsomes, NADPH, 2 μM; for RLM CL (rat liver microsome hepatic clearance): first value of RLM/HLM cell
Method: Microsomal In-Vitro Clearance:
The test articles (2 μM) were incubated for one hour in 1 mg/mL rat hepatic microsomes with 2 mM NADPH at 37° C. with aliquots removed at t=0, 15, 30 and 60 minutes. Incubations were terminated at the specified times by protein precipitation, and samples were centrifuged. Resultant supernants were analyzed by LC-MS/MS for the amount of incubated compound remaining, and the half life (t1/2) and intrinsic microsomal clearance rate (CLint) of each compound was calculated.

[3] = Rat plasma protein binding (equilibrium dialysis); format: in vitro ADME; settings: for fraction unbound at 6 h: read-out: Rat Plasma Protein Binding (PPB) Fu; for Rat Plasma Protein Binding (PPB) Fu: fraction unbound
Method: as §1, §2

Rat PK (i.v./p.o.) = format: in vivo; settings: for clearance: iv, read-out: Rat In vivo CL; for Oral AUC/D: formulation as in Table 6; for Rat In vivo CL: i.v.; for increase in oral bioavailability: compound 39 vs compound 6, compound 42 vs compound 40
Method: Sprague Dawley Rats (n=3) were dosed both intravenously and orally with a solution formulation followed by plasma collection at time points providing sufficient coverage of the absorption, distribution, metabolism and excretion phases of the test article. Test article concentrations at each time point were determined by LC-MS detected bioanalytical analysis. Non-compartmental pharmacokinetic analysis of the intravenous bioanalytical data provided area under the curve, clearance, volume of distribution, and terminal half life parameters while similar analysis of plasma samples from animals dosed orally provided area under the curve, bio-available fraction and oral terminal half life pharmacokinetic parameters.
Rats (n of 3) were dosed both intravenously and orally with the various compounds. Plasma samples were collected at time points chosen to provide sufficient coverage of the absorption, distribution, metabolism and excretion phases of the test compound. LC-MS detected bioanalytical analysis was performed on the plasma samples utilizing a standard curve and quality control samples to provide enough precision and accuracy to determine the concentrations test article for plasma from each time point. Non-compartmental pharmacokinetic analysis of the intravenous bioanalytical data provided area under the curve, clearance, volume of distribution, terminal half life parameters while similar analysis of plasma samples from animals dosed orally provided area under the curve, bio-available fraction and oral terminal half life pharmacokinetic parameters (see FIG. 1).

[4] = In-vitro precipitation time in simulated gastric and intestinal fluids; format: physicochemical; settings: oral dosing solution; for In-vitro Precipitation Time (Visual assessment), SGF: simulated gastric fluid; for In-vitro Precipitation Time (Visual assessment), SIF: simulated intestinal fluid
Method: Dosing solutions at 1 mg/mL for rat PK studies were prepared using either a pH+co-solvent approach or pH+cosolvent+surfactant approach. The total amounts of cosolvent and surfactant used in the solution formulations ranged from 5-8% v/v and q.s. with pH 9 phosphate buffer. Solutions were assessed for their potential for in-vivo precipitation using an in-vitro dilution test (1:1, 1:4 and 1:9) in simulated gastric and intestinal fluids.

[5] = pH-solubility (high-throughput, buffers); format: physicochemical; settings: for solubility at 24 h: aqueous with cosolvent or surfactant or cyclodextrin, kinetic from dmso stock; for Sol. pH 4: 1000 ug compound in 1 mL pH 4 buffer; for Sol. pH 7: 1000 ug compound in 1 mL pH 7 buffer; for Sol. pH 9: 1000 ug compound in 1 mL pH 9 buffer
Method: Solubility of representative acidic triazoles was measured in 3 buffer systems (pH 4, 7.4 and 9) using an in-house high-throughput solubility method. A stock solution of test article was prepared in DMA (20 mg/ml) and spiked into each buffer system (20× dilution) to target 1 mg/ml concentration. The samples were vortexed briefly and equilibrated for 24 hr at RT. Samples were then filtered using 0.22u PVDF membrane filters and analyzed for drug concentration using HPLC.

[6] = Human liver microsome clearance; format: in vitro ADME; settings: second value of RLM/HLM cell
Molt-4 cells = test: Chemotaxis assay of Molt-4 cells towards TECK; format: cell-based; settings: Molt-4 cells in HBSS buffer with 0.1% BSA, TECK at EC80
Method: Molt-4 cells were harvested and re-suspended in HBSS buffer with 0.1% BSA or in 100% human serum. Cell suspensions were mixed with compound solutions for 10 min and then seeded onto the upper chamber of the ChemoTX chemotaxis plates with 5 μm pore size polycarbonate membrane from NeuroProbe (Gaithersburg, Md.). EC80 concentration of TECK was applied in the bottom chamber. After 2 hours of incubation at 37° C., the assay was terminated by removing the upper chamber. The cells migrated into the bottom chamber were quantified with CyQUANT solution from Invitrogen (Grand Island, N.Y.).

[7] = oral, 6: co-solvent (pH 9), 39, 40, 42: co-solvent + surfactant (pH 9)

| LipE (CCR9 receptor) | fraction unbound at 6 h [1] | CLint scaled at 2 μM [2] [mL/min/kg] | fraction unbound at 6 h [3] | Rat In vivo CL as % Hepatic Blood Flow (Rat PK (i.v./p.o.)) [%] | clearance (Rat PK (i.v./p.o.); Sprague Dawley, plasma) [mL/min/kg] | Oral AUC/D (Rat PK (i.v./p.o.); oral) | HLM CL (human liver microsome hepatic clearance) [6] [mL/min/kg] | RLM CL (rat liver microsome hepatic clearance) [2] [mL/min/kg] | IC50 (Molt-4 cells; Homo sapiens) [nM] | Vd (in words) (Rat PK (i.v./p.o.)) | in vivo CL (in words) (Rat PK (i.v./p.o.)) | Sol. pH 4 [5] [ug/mL] | Sol. pH 7 [5] [ug/mL] | Sol. pH 9 [5] [ug/mL] | IC50 (CCR9 receptor) [nM] | Rat Microsome In Vitro CLint [2] [mL/min/kg] | Rat Plasma Protein Binding (PPB) Fu [3] | Rat In vivo CL (Rat PK (i.v./p.o.)) [mL/min/kg] | SMILES | other results |
| --- | --- | --- | --- | --- | --- | --- | --- | --- | --- | --- | --- | --- | --- | --- | --- | --- | --- | --- | --- | --- |
| 2.4 | 0.703 | 717 | 0.01 | 44 | 24 | 0.08 ug · hr/ml/(mg/kg) | – | – | – | – | – | – | – | – | – | – | – | – | Cc1nc2ncnn2c(O)c1Cc1ccc(C(C)(C)C)cc1 [Compound 6] | bioavailability (Rat PK (i.v./p.o.); Sprague Dawley, plasma, oral, 6: co-solvent (pH 9), 39, 40, 42: co-solvent + surfactant (pH 9), read-out: % F (p.o.)): 12%; In-vitro Precipitation Time (Visual assessment), SGF [4]: SGF: 0 min; In-vitro Precipitation Time (Visual assessment), SIF [4]: SIF: 120 min; solubility at 24 h ([5]; pH 4 buffer, pH 4 (Table 6), read-out: Solubility pH 4): 13 µg/mL (≈ 43.9 µM); solubility at 24 h ([5]; pH 7.4 buffer, pH 7.4 (Table 6), read-out: Solubility pH 7.4): 140 µg/mL (≈ 472 µM); solubility at 24 h ([5]; pH 9 buffer, pH 9 (Table 6), read-out: Solubility pH 9): 1000 µg/mL (≈ 3370 µM) |
| 4.4 | – | – | – | – | – | – | 19 | 51 | 480 | moderate | high | 13 | 136 | > 1000 | – | – | – | – | Cc1nc2ncnn2c(O)c1Cc1ccc(C(C)(C)C)cc1 [Compound 11] | half-life (in words) (Rat PK (i.v./p.o.)): short; oral bioavailability (in words) (Rat PK (i.v./p.o.)): low |
| – | 0.85 | 373 | 0.01 | 10 | 5 | – | 8 | 48 | 42 | – | – | 3 | 135 | > 1000 | 8 | – | – | – | COCc1nc2ncnn2c(O)c1Cc1ccc(C(C)(C)C)cc1 [Compound 26] | – |
| – | 0.255 | 111 | 0.01 | 32 | 17 | – | 13 | 37 | 20 | – | – | 4 | 58 | 910 | 5 | – | – | – | CC(C)(C)c1ccc(Cc2c(C3CCC3)nc3ncnn3c2O)cc1 [Compound 27] | – |
| 5.6 | 0.85 | 8 | 0.011 | 3 | 1 | – | 1 | 7 | 500 | increased | lower | > 1000 | 994 | 982 | 64 | – | – | – | CCc1nc2ncnn2c(O)c1Cc1ccc(C(C)(C)C#N)cc1 [Compound 37] | metabolic stability (in words) [2]: increased; exposure (in words) (Rat PK (i.v./p.o.)): highest exposure for the series; half-life (in words) (Rat PK (i.v./p.o.)): extended |
| 5.9 | – | – | – | 9 | – | – | 5 | 15 | – | low | relatively low | 132 | 999 | 989 | 13 | 21 | 0.010 | 5 | COCc1nc2nc(O)c(Cc3ccc(C(C)(C)C)cc3)c(COC)n2n1 [Compound 38, 6-(4-(tert-butyl)benzyl)-2,7-bis(methoxymethyl)-[1,2,4]triazolo[1,5-a]pyrimidin-5-ol] | metabolic stability (in words) [2]: improved; IC50 (Molt-4 cells): 200 nM; exposure (in words) (Rat PK (i.v./p.o.)): good; solubility (in words) [5]: improved |
| – | – | – | – | – | – | 0.32 ug · hr/ml/(mg/kg) | – | – | – | – | – | – | – | – | – | – | – | – | Cc1nc2nc(CO)nn2c(O)c1Cc1ccc(C(C)(C)C)cc1 [Compound 39] | increase in oral bioavailability (Rat PK (i.v./p.o.)): approximately 4 fold; % F (p.o.) (Rat PK (i.v./p.o.); [7]): 43%; In-vitro Precipitation Time (Visual assessment), SGF [4]: SGF: 60 min; In-vitro Precipitation Time (Visual assessment), SIF [4]: SIF: >240 min; Solubility pH 4 ([5]; pH 4 (Table 6)): 0.024 mg/ml; Solubility pH 7.4 ([5]; pH 7.4 (Table 6)): 0.26 mg/ml; Solubility pH 9 ([5]; pH 9 (Table 6)): 1 mg/ml |
| – | – | – | – | 15 | – | – | – | – | – | – | – | – | – | – | – | 171 | 0.010 | 8 | COCc1nc2nc(C)c(Cc3ccc(C(C)(C)C)cc3)c(O)n2n1 [Compound 41] | – |
| – | – | – | – | 7 | – | 1.25 ug · hr/ml/(mg/kg) | – | – | – | – | – | – | – | – | – | 373 | 0.010 | 4 | Cc1nc2nc(OCCO)nn2c(O)c1Cc1ccc(C(C)(C)C)cc1 [Compound 42] | increase in oral bioavailability (Rat PK (i.v./p.o.)): 3 fold; % F (p.o.) (Rat PK (i.v./p.o.); [7]): 43%; increase in solubility at pH 4 ([5]; compound 42 vs compound 40): ~7 fold; increase in solubility at pH 7.4 ([5]; compound 42 vs compound 40): ~30 fold; Solubility pH 4 ([5]; pH 4 (Table 6)): 0.045 mg/ml; Solubility pH 7.4 ([5]; pH 7.4 (Table 6)): 0.61 mg/ml; Solubility pH 9 ([5]; pH 9 (Table 6)): 1 mg/ml |
